From patent US7005443B1, “5-Hydroxy indazole derivatives for treating glaucoma” (priority 2000, dated 2006)
Like-named read-outs stand apart in the source and are kept apart here.

Legend:
5HT2 receptor = target: T1, 5HT2 receptor (Rattus norvegicus, UniProt P14842); test: 5HT2 Functional Assay: Phosphoinositide (PI) turnover assay; type: cell-based; settings: for Emax: A7R5, read-out: Efficacy (Emax, %)
T1 construct: A7r5 rat vascular smooth muscle cells; endogenous in cells; host or cells: A7r5 rat vascular smooth muscle cells
Method: 5HT2 Functional Assay: Phosphoinositide (PI) turnover assay
The relative agonist activity of serotonergic compounds at the 5HT2 receptor can be determined in vitro using the ability of the compounds to stimulate the production of [^3H]inositol phosphates in [^3H]myo-inositol-labeled A7r5 rat vascular smooth muscle cells by their ability to activate the enzyme phospholipase C. These cells are grown in culture plates, maintained in a humidified atmosphere of 5% CO2 and 95% air and fed semi-weekly with Dulbecco's modified Eagle medium (DMEM) containing 4.5 g/l glucose and supplemented with 2 mM glutamine, 10 μg/ml gentamicin, and 10% fetal bovine serum. For the purpose of conducting the phosphoinositide (PI) turnover experiments, the A7r5 cells are cultured in 24-well plates as previously [J. Pharmacol. Expt. Ther., 286, 411 (1998)]. Confluent cells are exposed for 24–30 hrs to 1.5 μCi [^3H]-myo-inositol (18.3 Ci/mmol) in 0.5 ml of serum-free medium. Cells are then rinsed once with DMEM/F-12 containing 10 mM LiCl prior to incubation with the test agent (or solvent as the control) in 1.0 ml of the same medium for 1 hr at 37° C., after which the medium is aspirated and 1 ml of cold 0.1 M formic acid added to stop the reaction. The chromatographic separation of [^3H]-inositol phosphates ([^3H]-IPs) on an AG- 1-X8 column is performed as previously described [J. Pharmacol. Expt. Ther. 286, 411 (1998)] with sequential washes with H2O and 50 mM ammonium formate, followed by elution of the total [^3H]-IPs fraction with 1.2 M ammonium formate containing 0.1 M formic acid. The eluate (4 ml) is collected, mixed with 15 ml scintillation fluid, and the total [3H]-IPs determined by scintillation counting on a beta-counter. Concentration-response data are analyzed by the sigmoidal fit function of the Origin Scientific Graphics software (Microcal Software, Northampton, Mass.) to determine agonist potency (EC50 value) and efficacy (Emax). Serotonin (5HT) is used as a positive control (standard) agonist compound and the efficacy of test compounds is compared to that of 5HT (set at 100%). The concentration of the compound needed to stimulate the production of […] by 50% of the maximum response is termed the EC50 value.

T1 sequence (P14842 whole entry): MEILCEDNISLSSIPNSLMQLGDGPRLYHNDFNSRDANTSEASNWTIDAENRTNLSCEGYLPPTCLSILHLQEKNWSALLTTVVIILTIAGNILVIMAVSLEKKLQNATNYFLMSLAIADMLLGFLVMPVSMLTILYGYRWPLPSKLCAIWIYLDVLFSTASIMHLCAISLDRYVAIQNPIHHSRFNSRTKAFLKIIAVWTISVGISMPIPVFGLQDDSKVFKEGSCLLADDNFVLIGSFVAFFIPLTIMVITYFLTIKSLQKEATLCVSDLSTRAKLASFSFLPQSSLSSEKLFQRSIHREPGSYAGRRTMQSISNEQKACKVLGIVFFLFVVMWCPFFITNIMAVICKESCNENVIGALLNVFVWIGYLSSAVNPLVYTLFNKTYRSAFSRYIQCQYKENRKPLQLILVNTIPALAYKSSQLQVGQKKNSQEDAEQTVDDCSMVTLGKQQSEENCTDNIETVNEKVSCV

Compound | Emax (5HT2 receptor) [%] | EC50 (5HT2 receptor; [3H]inositol phosphate production in A7r5 rat vascular smooth muscle cells, read-out: EC50) [nM] | melting point [°C] | EC50 (5HT2 receptor) [nM]
CC(N)Cc1n[nH]c2ccc(O)cc12.Cl (stereo not drawn) [3-(2-Aminopropyl)-1H-indazol-5-ol hydrochloride] | 97 | 1210 | 227 to 230 | –
CC(N)Cc1nn(C)c2ccc(O)cc12.O=C(O)/C=C/C(=O)O (stereo not drawn) [3-(2-Aminopropyl)-1-methyl-1H-indazol-5-ol fumarate] | 98 | – | 136 to 139 | 778
